Data taken from patent US8765786B2, “1-substituted indazole derivative” (Dainippon Sumitomo Pharma Co., Ltd., priority 2012, dated 2014).

Molecular target: T1, human α7 nAChR (Homo sapiens, UniProt P36544)
T1 construct: expressed in transfected cells; host or cells: GH4C1 cells derived from rat pituitary (ATCC CCL-82.2)
Test: Evaluation of PAM activity with human α7 nACh receptor stably expressing cells (aequorin luminescence, FDSS7000)
Format: cell-based
Conditions: result in words; ratio of RLU (Max-Min) to control wells, ACh EC20
Summary of the method: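 PAM activity defined as RLU (Max-Min) of compound wells over control wells, from 465 nm aequorin luminescence tracked 138 s after ACh challenge. Host: GH4C1 (rat pituitary) stably co-expressing human α7 nAChR and aequorin, pre-loaded 4 h with 4 μmol/L luminescent substrate.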

T1 sequence (P36544 23-502): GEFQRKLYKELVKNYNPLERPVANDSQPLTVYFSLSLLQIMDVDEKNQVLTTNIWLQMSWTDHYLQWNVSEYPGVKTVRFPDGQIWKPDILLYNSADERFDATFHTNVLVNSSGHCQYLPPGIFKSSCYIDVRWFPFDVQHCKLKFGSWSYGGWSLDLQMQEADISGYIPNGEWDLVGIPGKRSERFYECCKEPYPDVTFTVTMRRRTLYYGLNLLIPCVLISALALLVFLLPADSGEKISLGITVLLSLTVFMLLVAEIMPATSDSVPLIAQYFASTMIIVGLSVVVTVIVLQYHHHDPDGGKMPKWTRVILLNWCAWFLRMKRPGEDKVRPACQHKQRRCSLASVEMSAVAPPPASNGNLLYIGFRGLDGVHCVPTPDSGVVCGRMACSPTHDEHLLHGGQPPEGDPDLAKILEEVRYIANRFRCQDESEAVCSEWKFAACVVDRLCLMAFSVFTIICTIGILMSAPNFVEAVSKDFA

| Compound | PAM activity for α7 nAChR |
| --- | --- |
| Cc1ccc2c(cnn2C2CCN(C(=O)NC3CCC(F)(F)CC3)CC2)c1 [Example 13, N-(4,4-difluorocyclohexyl)-4-(5-methyl-1H-indazol-1-yl)piperidine-1-carboxamide] | stronger PAM activity than others |
| CCOc1ccc2c(cnn2C2CCN(C(=O)NC3CCCC3)CC2)c1 [Example 17] | stronger PAM activity than others |
| COc1ccc2c(cnn2C2CCN(C(=O)NC3CCC(F)(F)CC3)CC2)c1 [Example 41, N-(4,4-difluorocyclohexyl)-4-(5-methoxy-1H-indazol-1-yl)piperidine-1-carboxamide] | stronger PAM activity than others |
| COCC1CCC(NC(=O)N2CCC(n3ncc4cc(C)ccc43)CC2)CC1 (stereo not drawn) [Example 220] | stronger PAM activity than others |

Same assay, conditions: test compound 10 μmol/L; ACh added at EC20; ratio of RLU (Max-Min) of test wells to control wells

| Compound | α7PAM (%) @ 10 μmol/L [%] |
| --- | --- |
| CC(C)Oc1ccc2c(cnn2C2CCN(C(=O)NC3CCCC3)CC2)c1 [Example 49] | 429 |
| O=C(NC1CCC(F)(F)CC1)N1CCC(n2ncc3cc(C(F)(F)F)ccc32)CC1 [Example 164] | 979 |
| COc1ccc2c(c1)c(C1CCOCC1)nn2C1CCN(C(=O)NC2CCC(F)(F)CC2)CC1 [Example 261] | 924 |
| CCOc1nn(C2CCN(C(=O)NC3CCOCC3)CC2)c2ccc(C(F)(F)F)cc12 [Example 267] | 292 |
| CCc1ccc2c(cnn2C2CCN(C(=O)c3ccc(F)cn3)CC2)c1 [Example 118] | 188 |
| COC(C)Cc1ccc2c(cnn2C2CCN(C(=O)N[C@H]3CC[C@H](OC)CC3)CC2)c1 (stereo partly drawn) [Example 247] | 353 |
| CCc1ccc2c(cnn2C2CCN(C(=O)NC3CCC(F)(F)CC3)CC2)c1OC [Example 256] | 1668 |
| CCOc1ccc2c(cnn2C2CCN(C(=O)NC3CCOCC3)CC2)c1 [Example 19] | 306 |
| CO[C@H]1CC[C@@H](NC(=O)N2CCC(n3ncc4cc(C5CC5)ccc43)CC2)CC1 [Example 189] | 257 |
| CCOc1ccc2c(cnn2C2CCN(C(=O)NC3CCCC3)CC2)c1 [Example 17] | 2469 |
| COc1c(C(F)(F)F)ccc2c1cnn2C1CCN(C(=O)NC2CCC(OC)CC2)CC1 (stereo not drawn) [Example 317] | 360 |
| COCCCc1ccc2c(cnn2C2CCN(C(=O)N[C@H]3CC[C@H](OC)CC3)CC2)c1 [Example 32] | 430 |
| O=C(NC1CCCCC1)N1CCC(n2ncc3cc(C4CC4)ccc32)CC1 [Example 199] | 1497 |
| COc1ccc2c(cnn2C2CCN(C(=O)N[C@@H]3CCCCC3(F)F)CC2)c1 [Example 85] | 1081 |
| CCc1nn(C2CCN(C(=O)N[C@H]3CC[C@H](OC)CC3)CC2)c2ccc(OC)cc12 [Example 240] | 833 |
| COCc1nn(C2CCN(C(=O)NC3CCC(OC)CC3)CC2)c2ccc(C)cc12 (stereo not drawn) [Example 69] | 242 |
| CCc1c(OC)ccc2c1cnn2C1CCN(C(=O)N[C@H]2CC[C@H](OC)CC2)CC1 [Example 288] | 218 |
| COCc1c(C2CC2)ccc2c1cnn2C1CCN(C(=O)NC2CCC(F)(F)CC2)CC1 [Example 215] | 851 |
| CCCc1ccc2c(cnn2C2CCN(C(=O)C3CCOCC3)CC2)c1 [Example 108] | 207 |
| Cc1cccc2c1cnn2C1CCN(C(=O)NC2CCC(F)(F)CC2)CC1 [Example 93] | 934 |
| COc1nn(C2CCN(C(=O)NC3CCC(F)(F)CC3)CC2)c2ccc(C)cc12 [Example 270] | 364 |
| CCc1ccc2c(cnn2[C@H]2CC[C@@H](NC(=O)[C@H]3CC[C@H](OC)CC3)CC2)c1 [Example 122] | 410 |
| CCOc1ccc2c(cnn2C2CCN(C(=O)NC3CCC(F)(F)CC3)CC2)c1C [Example 281] | 197 |
| O=C(NC1CCC(F)(F)CC1)N1CCC(n2ncc3cc(C4CC4)ccc32)CC1 [Example 77] | 1780 |
| COc1ccc2c(c1)c(C1=CCOCC1)nn2C1CCN(C(=O)N[C@H]2CC[C@H](OC)CC2)CC1 [Example 260] | 428 |

| Compound | α7PAM (%) @ 10 μmol/L [%] |
| --- | --- |
| COC1CCC(NC(=O)N2CCC(n3ncc4c(OC(F)F)cccc43)CC2)CC1 (stereo not drawn) [Example 202] | 195 |
| COCc1c(C)ccc2c1cnn2C1CCN(C(=O)NC2CCC(F)(F)CC2)CC1 [Example 213] | 800 |
| Cc1ccc2c(cnn2C2CCN(C(=O)C3CCCC3)CC2)c1 [Example 106] | 164 |
| [2H]C([2H])([2H])Oc1ccc2c(cnn2C2CCN(C(=O)NC3CCCCC3)CC2)c1 [Example 324] | 1352 |
| CCOc1c(CC)ccc2c1cnn2C1CCN(C(=O)NC2CCC(F)(F)CC2)CC1 [Example 271] | 931 |
| [2H]C([2H])([2H])O[C@H]1CC[C@H](NC(=O)N2CCC(n3ncc4cc(OC(F)F)ccc43)CC2)CC1 [Example 326] | 1251 |
| COCC1CCC(NC(=O)N2CCC(n3ncc4cc(C)ccc43)CC2)CC1 (stereo not drawn) [Example 220] | 2160 |
| CCc1ccc2c(c1)c(COC)nn2C1CCN(C(=O)NC2CCC(F)(F)CC2)CC1 [Example 157] | 366 |
| O=C(NC1CCC(F)(F)CC1)N1CCC(n2ncc3cc(-c4cccnc4)ccc32)CC1 [Example 196] | 229 |
| COC1CCC(NC(=O)N2CCC(n3nc(C)c4cc(C)ccc43)CC2)CC1 (stereo not drawn) [Example 89] | 1506 |
| O=C(NC1CC(F)(F)C1)N1CCC(n2ncc3cc(C4CC4)ccc32)CC1 [Example 217] | 517 |
| CO[C@H]1CC[C@H](NC(=O)N2CCC(n3ncc4c(F)c(C)ccc43)CC2)CC1 [Example 223] | 257 |
| CCc1ccc2c(c1)c(OC)nn2C1CCN(C(=O)NC2CCCCC2)CC1 [Example 151] | 746 |
| CCN(C(=O)N1CCC(n2ncc3ccccc32)CC1)C1CCC(OC)CC1 (stereo not drawn) [Example 51] | 295 |
| CCc1ccc2c(cnn2C2CCN(C(=O)NC3CCOC(C)(C)C3)CC2)c1 (stereo not drawn) [Example 21] | 523 |
| CCc1nn(C2CCN(C(=O)NC3CCC(F)(F)CC3)CC2)c2ccc(OC)cc12 [Example 241] | 358 |
| COC1CCC(NC(=O)N2CCC(n3ncc4cc(F)ccc43)CC2)CC1 (stereo not drawn) [Example 29] | 206 |
| COc1ccc2c(c1)c(C1=CCOCC1)nn2C1CCN(C(=O)NC2CCC(F)(F)CC2)CC1 [Example 259] | 309 |
| O=C(NCc1ccc(C(F)(F)F)cc1)N1CCC(n2ncc3cc(C4CC4)ccc32)CC1 [Example 195] | 232 |
| COCC1CCC(NC(=O)N2CCC(n3ncc4cc(OC(C)C)ccc43)CC2)CC1 (stereo not drawn) [Example 235] | 611 |
| CCOc1ccc2c(cnn2C2CCN(C(=O)c3ccc(F)cn3)CC2)c1 [Example 114] | 189 |
| COc1c(C2CC2)ccc2c1cnn2C1CCN(C(=O)NC2CCOCC2)CC1 [Example 303] | 1058 |
| CCc1ccc2c(c1)c(OC(C)C)nn2C1CCN(C(=O)NC2CCC(F)(F)CC2)CC1 [Example 62] | 653 |
| COCC1CCC(NC(=O)N2CCC(n3ncc4cc(OC(F)(F)F)ccc43)CC2)CC1 (stereo not drawn) [Example 228] | 276 |
| O=C(NC1CCCC1)N1CCC(n2ncc3cc(OC(F)(F)F)ccc32)CC1 [Example 229] | 689 |

Same assay, conditions: test compound 10 μmol/L; ACh added at EC20; ratio of RLU (Max-Min) of test wells to control wells; read-out: α7PAM (%) @ 10 μmol/L

| Compound | activity at 10 µM [%] |
| --- | --- |
| O=C(NC1CCC(F)(F)CC1)N1CCC(n2ncc3cc(-c4ccc(F)cc4)ccc32)CC1 [Example 70, N-(4,4-difluorocyclohexyl)-4-(5-(4-fluorophenyl)-1H-indazol-1-yl)piperidine-1-carboxamide] | 719 |
| CC(C)Cc1ccc2c(cnn2C2CCN(C(=O)C3CCOCC3)CC2)c1 [Example 103, (4-(5-isobutyl-1H-indazol-1-yl)piperidin-1-yl)(tetrahydro-2H-pyran-4-yl)methanone] | 281 |
| Cc1ccc2c(cnn2C2CCN(C(=O)N[C@@H]3CCCC3(F)F)CC2)c1 [Example 81, (R) —N-(2,2-difluorocyclopentyl)-4-(5-methyl-1H-indazol-1-yl)piperidine-1-carboxamide] | 819 |
| CO[C@H]1CC[C@H](NC(=O)N2CCC(n3ncc4cc(OC(F)(F)F)ccc43)CC2)CC1 [Example 219, N-(trans-4-methoxycyclohexyl)-4-[5-(trifluoromethoxy)-1H-indazol-1-yl]piperidine-1-carboxamide] | 238 |
| CO[C@H]1CC[C@H](NC(=O)N2CCC(n3ncc4cc(OC5CC5)ccc43)CC2)CC1 [Example 230, 4-[5-(cyclopropoxy)-1H-indazol-1-yl]-N-(trans-4-methoxycyclohexyl)piperidine-1-carboxamide] | 621 |
| CCOc1nn(C2CCN(C(=O)NC3CCOCC3)CC2)c2ccc(CC)cc12 [Example 2, 4-(3-ethoxy-5-ethyl-1H-indazol-1-yl)-N-(tetrahydro-2H-pyran-4-yl)piperidine-1-carboxamide] | 625 |
